Results published in patent US6303596A, “Use of taurolidine for treatment of leukemias” (priority 2000, dated 2001).
Read-outs that look alike come from different tables or passages of the source.

Key:
Assay type in all cases: cell-based, human
PBMC = assay: TUNEL / propidium iodide flow cytometry, PBMC all cells, culture medium; details: PBMC
Procedure: (§1) FIG. 14A and FIG. 14B are terminal deoxytransferase-mediated deoxyuridine-triphosphate-biotin nick end labeling assay (TUNEL) analyses of control cells and taurolidine-treated PBMC, respectively. Cells were incubated with 100 μg/ml taurolidine for six hours and processed for TUNEL analysis as given below. Parallel samples were stained with FITC-conjugated anti-CD14 and propidium iodide (PI) as described below. Ten thousand events were recorded per sample. TUNEL signal (x-axis) is a measure of DNA fragmentation, which FSC (y-axis) is related to cell size. TUNEL-negative lymphocytes are bounded by the rectangle R1, while TUNEL-negative monocytes (CD14 positive cells) are bounded by the rectangle R2. The vertical line indicates demarcation between TUNEL-negative and TUNEL-positive cells. There were minimal numbers of PI-positive cells in the six hour samples (see Table IV).
(§2) In the second method, DNA fragmentation was detected via TUNEL assay according to the manufacturer's instructions. With this methodology, 2×10^6 cells were fixed with 2% paraformaldehyde, permeabilized with 0.1% Triton X-100/0.1% citrate, incubated at 37° C. with terminal deoxynucleotidyl transferase and FITC-dUTP, rinsed and analyzed by flow cytometry. Enhanced FITC signal indicates apoptosis-specific DNA fragmentation. Gavriali, et al, "Identification of programmed cell death in situ via specific labeling of nuclear DNA fragmentation," J Cell Biol 119:493 (1992). Parallel aliquots of unfixed cells were treated with PI and FITC-conjugated anti-CD14 and analyzed by flow cytometry, in order to identify cells with permeable cell membranes (since PI binds to DNA but is excluded from cells with intact plasma membranes) and also to determine the cell-specificity of the apoptotic signal.
(§3) A Becton-Dickinson FACSCalibur instrument was used for flow cytometric analysis of cells. Assessment of cell diameter (forward scatter; FCS) and granularity (side scatter; SSC).was carried out on unfixed cells. Discrimination between lymphocytes and monocytes was made possible by their characteristic differences in FSC and SSC, and confirmed by staining monocytes with FITC-labeled anti-CD14 antibodies and lymphocytes with a combination of FITC-conjugated anti-CD3 and PE-conjugated anti-CD19. After incubation with taurolidine (with or without concomitant LPS treatment), cells were rinsed twice in phosphate-buffered saline containing 0.1% bovine serum albumin (PBSA) and 1×10^6 cells were resuspended in 0.1 ml PBSA. After 5 μl FITC-conjugated anti-CD14 was added, cells were incubated in the dark on ice for 15 minutes and then centrifuged at 250×g. Cells were resuspended in 500 μl PBSA containing 5 μg/ml PI and subjected to flow cytometry.
(§4) Consequently, TUNEL analysis was performed on PBMC at 3, 6, or 24 hours after treatment with 25 to 100 μg/ml taurolidine. Aliquots of harvested cells were also labeled with FITC-conjugated anti-CD14 antibodies and PI, which allowed identification of monocytes (CD14-positive cells) and cells with damaged cell membranes (PI-positive cells). […] Thus, nearly 75% of the monocytes were TUNEL-positive following treatment with 100 μg/ml taurolidine for six hours. Confirmation that the TUNEL-positive cells were monocytes was obtained by staining with FITC-conjugated anti-CD14.
(§5) ^a Analysis by flow cytometry after staining cells with FITC-conjugated
(§6) anti-CD14 and PI, and processing for TUNEL. Data are mean ± SD of two

[1] = as above; details: human, pbmc, PBMC all cells, 6 h, mean ± SD of two experiments, read-out: % Propidium Iodide Positive
Procedure: as §1, §2, §3, §4, §5, §6

all cells tested = assay: apoptogenic efficiency in all cells tested
Procedure: In another study, TUNEL assays were performed on all cell lines 6 hours after cells were initially exposed to taurolidine (cells were treated for 4 hours, rinsed, and then incubated for 2 more hours before TUNEL assay was performed).
. Taurolidine and anisomycin induced apoptosis in MM6, HL-60, and Jurkat cells (Table VIII). MM6 and HL-60 cells were similarly effected, with >80% TUNEL-positive cells after 6 hours. Jurkat cells were less sensitive, with approximately 50% of cells induced to undergo apoptosis after taurolidine treatment. After 6 hours, 73% of anisomycin-treated REH cells were apoptotic, with less than 20% of taurolidine-treated REH cells being TUNEL-positive. However, assay of cells 24 hours after […]

[2] = test system: ECV304 (endothelial cells); assay: trypan blue exclusion, ECV304; details: ECV304, after taurolidine treatment
Procedure: FIGS. 10A and 10B depict cell viability and growth rates for ECV304 cell line following taurolidine treatment, in terms of % trypan blue negative cells and % cell number, respectively. Cells were treated with various concentrations of taurolidine for 4 hours in AIM-V+0.01% BCS. After aliquots were collected for LDH assay, the remainder of the culture was rinsed in HBSS and resuspended in RPMI+10% BCS without taurolidine. Counts of trypan blue-negative cells (FIG. 10A), and total cell number (FIG. 10B), were recorded daily thereafter (with the measurement at Day 1 being made immediately after the 4 hour taurolidine treatment). Conditions were: no treatment (open circles); 25 μg/ml taurolidine (closed circles); 50 μg/ml taurolidine (open squares); 100 μg/ml taurolidine (closed squares); and vehicle alone (closed triangles). Doubling times were determined under each condition, and expressed as a percentage of the rate of doubling of untreated cells. These values are located to the right of the growth curves in (FIG. 10B). […]
HL-60 cells treated with 50 μl taurolidine. In these samples, LDH present in the culture medium was 8.3±2.3% of that released by completely lysed cells, compared with 2.3±0.8% measured in control cultures. […] After 4 hour treatment, cells were rinsed and returned to growth medium and monitored for viability and growth over the following 3 days. […]

SMILES: O=S1(=O)CCN(CN2CCS(=O)(=O)NC2)CN1 [taurolidine, 4,4'-methylenebis(perhydro-1,2,4-thiadiazin 1,1-dioxide)]
- TUNEL-positive PBMC (PBMC; 100 μg/ml, 6 h): substantial population of TUNEL-positive cells
- TUNEL-positive PBMC (PBMC; 3 h incubation): relatively few
- PI-positive cells versus control (PBMC; taurolidine, 6 h): equivalently low levels of PI-positive cells
- cytotoxicity at 6 h ([1]; 25 μg/ml): 9 ± 3.2%
- cytotoxicity at 6 h ([1]; 50 μg/ml): 12.2 ± 5.6%
- cytotoxicity at 6 h ([1]; 100 μg/ml): 9 ± 3.5%
- apoptogenic efficiency versus anisomycin (all cells tested): as efficient an apoptogenic agent as the protein synthesis inhibitor anisomycin
- trypan blue staining during 4 day growth [2]: did not demonstrate a significant increase in trypan blue staining
- trypan blue staining during 4 day growth ([2]; listed as Taurolidine): cells remained trypan blue negative
